Measured values reported in patent US20060263802A1 (priority 2003, published 2006).

Experiments:
Type in all cases: binding
[1] = tested on: human monoclonal antibody CRJB
[2] = tested on: human monoclonal antibody CR57
[3] = tested on: human monoclonal antibody CRJA
[4] = tested on: human monoclonal antibody CRJB; remark: listed apart in the source
[5] = tested on: human monoclonal antibody CR57; remark: listed apart in the source
[6] = tested on: human monoclonal antibody CRJA; remark: listed apart in the source

YDRSLHSRVFPSGKC
Binding of CRJB to linear peptide (PEPSCAN-ELISA signal) [1]: 818 | binding of antibody CRJB to linear peptide (PEPSCAN OD) [1]: clearly bound | Binding of CR57 to linear peptide (PEPSCAN-ELISA signal) [2]: 364 | binding of antibody CR57 to linear peptide (PEPSCAN OD) [2]: bound | Binding of CRJA to linear peptide (PEPSCAN-ELISA signal) [3]: 1027 | binding of antibody CRJA to linear peptide (PEPSCAN OD) [3]: clearly bound | Binding of CRJB (10 μg/ml) to looped/cyclic peptide (PEPSCAN-ELISA signal) [4]: 72 | Binding of CR57 (10 μg/ml) to looped/cyclic peptide (PEPSCAN-ELISA signal) [5]: 112 | Binding of CRJA (10 μg/ml) to looped/cyclic peptide (PEPSCAN-ELISA signal) [6]: 86

HDYTIWMPENPRLGM
Binding of CRJB to linear peptide (PEPSCAN-ELISA signal) [1]: 125 | Binding of CR57 to linear peptide (PEPSCAN-ELISA signal) [2]: 82 | Binding of CRJA to linear peptide (PEPSCAN-ELISA signal) [3]: 110 | Binding of CRJB (10 μg/ml) to looped/cyclic peptide (PEPSCAN-ELISA signal) [4]: 96 | Binding of CR57 (10 μg/ml) to looped/cyclic peptide (PEPSCAN-ELISA signal) [5]: 88 | Binding of CRJA (10 μg/ml) to looped/cyclic peptide (PEPSCAN-ELISA signal) [6]: 97

TNFVGYVTTTFKRKH
Binding of CRJB to linear peptide (PEPSCAN-ELISA signal) [1]: 125 | Binding of CR57 to linear peptide (PEPSCAN-ELISA signal) [2]: 71 | Binding of CRJA to linear peptide (PEPSCAN-ELISA signal) [3]: 96 | Binding of CRJB (10 μg/ml) to looped/cyclic peptide (PEPSCAN-ELISA signal) [4]: 99 | Binding of CR57 (10 μg/ml) to looped/cyclic peptide (PEPSCAN-ELISA signal) [5]: 79 | Binding of CRJA (10 μg/ml) to looped/cyclic peptide (PEPSCAN-ELISA signal) [6]: 96

YRWLRTVKTTKESLV
Binding of CRJB to linear peptide (PEPSCAN-ELISA signal) [1]: 117 | Binding of CR57 to linear peptide (PEPSCAN-ELISA signal) [2]: 46 | Binding of CRJA to linear peptide (PEPSCAN-ELISA signal) [3]: 68 | Binding of CRJB (10 μg/ml) to looped/cyclic peptide (PEPSCAN-ELISA signal) [4]: 70 | Binding of CR57 (10 μg/ml) to looped/cyclic peptide (PEPSCAN-ELISA signal) [5]: 69 | Binding of CRJA (10 μg/ml) to looped/cyclic peptide (PEPSCAN-ELISA signal) [6]: 58

FRSDEIEHLVVEELV
Binding of CRJB to linear peptide (PEPSCAN-ELISA signal) [1]: 114 | Binding of CR57 to linear peptide (PEPSCAN-ELISA signal) [2]: 86 | Binding of CRJA to linear peptide (PEPSCAN-ELISA signal) [3]: 101 | Binding of CRJB (10 μg/ml) to looped/cyclic peptide (PEPSCAN-ELISA) [4]: 79 | Binding of CR57 (10 μg/ml) to looped/cyclic peptide (PEPSCAN-ELISA) [5]: 132 | Binding of CRJA (10 μg/ml) to looped/cyclic peptide (PEPSCAN-ELISA) [6]: 94

STYCSTNHDYTIWMP
Binding of CRJB to linear peptide (PEPSCAN-ELISA signal) [1]: 99 | Binding of CR57 to linear peptide (PEPSCAN-ELISA signal) [2]: 86 | Binding of CRJA to linear peptide (PEPSCAN-ELISA signal) [3]: 79 | Binding of CRJB (10 μg/ml) to looped/cyclic peptide (PEPSCAN-ELISA signal) [4]: 82 | Binding of CR57 (10 μg/ml) to looped/cyclic peptide (PEPSCAN-ELISA signal) [5]: 90 | Binding of CRJA (10 μg/ml) to looped/cyclic peptide (PEPSCAN-ELISA signal) [6]: 90

SIMTTKSVSFRRLSH
Binding of CRJB to linear peptide (PEPSCAN-ELISA signal) [1]: 130 | Binding of CR57 to linear peptide (PEPSCAN-ELISA signal) [2]: 54 | Binding of CRJA to linear peptide (PEPSCAN-ELISA signal) [3]: 92 | Binding of CRJB (10 μg/ml) to looped/cyclic peptide (PEPSCAN-ELISA) [4]: 25 | Binding of CR57 (10 μg/ml) to looped/cyclic peptide (PEPSCAN-ELISA) [5]: 69 | Binding of CRJA (10 μg/ml) to looped/cyclic peptide (PEPSCAN-ELISA) [6]: 72

QSSLLQQHMELLESS
Binding of CRJB to linear peptide (PEPSCAN-ELISA signal) [1]: 114 | Binding of CR57 to linear peptide (PEPSCAN-ELISA signal) [2]: 82 | Binding of CRJA to linear peptide (PEPSCAN-ELISA signal) [3]: 98 | Binding of CRJB (10 μg/ml) to looped/cyclic peptide (PEPSCAN-ELISA) [4]: 85 | Binding of CR57 (10 μg/ml) to looped/cyclic peptide (PEPSCAN-ELISA) [5]: 97 | Binding of CRJA (10 μg/ml) to looped/cyclic peptide (PEPSCAN-ELISA) [6]: 99

PGFGKAYTIFNKTLM
Binding of CRJB to linear peptide (PEPSCAN-ELISA signal) [1]: 113 | Binding of CR57 to linear peptide (PEPSCAN-ELISA signal) [2]: 78 | Binding of CRJA to linear peptide (PEPSCAN-ELISA signal) [3]: 118 | Binding of CRJB (10 μg/ml) to looped/cyclic peptide (PEPSCAN-ELISA) [4]: 79 | Binding of CR57 (10 μg/ml) to looped/cyclic peptide (PEPSCAN-ELISA) [5]: 110 | Binding of CRJA (10 μg/ml) to looped/cyclic peptide (PEPSCAN-ELISA) [6]: 94

NPYPDYRWLRTVKTT
Binding of CRJB to linear peptide (PEPSCAN-ELISA signal) [1]: 102 | Binding of CR57 to linear peptide (PEPSCAN-ELISA signal) [2]: 85 | Binding of CRJA to linear peptide (PEPSCAN-ELISA signal) [3]: 106 | Binding of CRJB (10 μg/ml) to looped/cyclic peptide (PEPSCAN-ELISA signal) [4]: 92 | Binding of CR57 (10 μg/ml) to looped/cyclic peptide (PEPSCAN-ELISA signal) [5]: 89 | Binding of CRJA (10 μg/ml) to looped/cyclic peptide (PEPSCAN-ELISA signal) [6]: 84

LYKSLKGACKLKLCG
Binding of CRJB to linear peptide (PEPSCAN-ELISA signal) [1]: 136 | Binding of CR57 to linear peptide (PEPSCAN-ELISA signal) [2]: 93 | Binding of CRJA to linear peptide (PEPSCAN-ELISA signal) [3]: 94 | Binding of CRJB (10 μg/ml) to looped/cyclic peptide (PEPSCAN-ELISA) [4]: 79 | Binding of CR57 (10 μg/ml) to looped/cyclic peptide (PEPSCAN-ELISA) [5]: 91 | Binding of CRJA (10 μg/ml) to looped/cyclic peptide (PEPSCAN-ELISA) [6]: 107

YPDYRWLRTVKTTKE
Binding of CRJB to linear peptide (PEPSCAN-ELISA signal) [1]: 97 | Binding of CR57 to linear peptide (PEPSCAN-ELISA signal) [2]: 72 | Binding of CRJA to linear peptide (PEPSCAN-ELISA signal) [3]: 88 | Binding of CRJB (10 μg/ml) to looped/cyclic peptide (PEPSCAN-ELISA signal) [4]: 73 | Binding of CR57 (10 μg/ml) to looped/cyclic peptide (PEPSCAN-ELISA signal) [5]: 88 | Binding of CRJA (10 μg/ml) to looped/cyclic peptide (PEPSCAN-ELISA signal) [6]: 92

RKREECLDALESIMT
Binding of CRJB to linear peptide (PEPSCAN-ELISA signal) [1]: 110 | Binding of CR57 to linear peptide (PEPSCAN-ELISA signal) [2]: 73 | Binding of CRJA to linear peptide (PEPSCAN-ELISA signal) [3]: 96 | Binding of CRJB (10 μg/ml) to looped/cyclic peptide (PEPSCAN-ELISA) [4]: 96 | Binding of CR57 (10 μg/ml) to looped/cyclic peptide (PEPSCAN-ELISA) [5]: 132 | Binding of CRJA (10 μg/ml) to looped/cyclic peptide (PEPSCAN-ELISA) [6]: 129

SHLRKLVPGFGKAYT
Binding of CRJB to linear peptide (PEPSCAN-ELISA signal) [1]: 132 | Binding of CR57 to linear peptide (PEPSCAN-ELISA signal) [2]: 113 | Binding of CRJA to linear peptide (PEPSCAN-ELISA signal) [3]: 118 | Binding of CRJB (10 μg/ml) to looped/cyclic peptide (PEPSCAN-ELISA) [4]: 103 | Binding of CR57 (10 μg/ml) to looped/cyclic peptide (PEPSCAN-ELISA) [5]: 143 | Binding of CRJA (10 μg/ml) to looped/cyclic peptide (PEPSCAN-ELISA) [6]: 160

SKGCLRVGGRCHPHV
Binding of CRJB to linear peptide (PEPSCAN-ELISA signal) [1]: 121 | Binding of CR57 to linear peptide (PEPSCAN-ELISA signal) [2]: 72 | Binding of CRJA to linear peptide (PEPSCAN-ELISA signal) [3]: 87 | Binding of CRJB (10 μg/ml) to looped/cyclic peptide (PEPSCAN-ELISA) [4]: 87 | Binding of CR57 (10 μg/ml) to looped/cyclic peptide (PEPSCAN-ELISA) [5]: 79 | Binding of CRJA (10 μg/ml) to looped/cyclic peptide (PEPSCAN-ELISA) [6]: 71

CPNNLVVEDEGCTNL
Binding of CRJB to linear peptide (PEPSCAN-ELISA signal) [1]: 97 | Binding of CR57 to linear peptide (PEPSCAN-ELISA signal) [2]: 77 | Binding of CRJA to linear peptide (PEPSCAN-ELISA signal) [3]: 75 | Binding of CRJB (10 μg/ml) to looped/cyclic peptide (PEPSCAN-ELISA signal) [4]: 54 | Binding of CR57 (10 μg/ml) to looped/cyclic peptide (PEPSCAN-ELISA signal) [5]: 79 | Binding of CRJA (10 μg/ml) to looped/cyclic peptide (PEPSCAN-ELISA signal) [6]: 84

IFNKTLMEADAHYKS
Binding of CRJB to linear peptide (PEPSCAN-ELISA signal) [1]: 118 | Binding of CR57 to linear peptide (PEPSCAN-ELISA signal) [2]: 100 | Binding of CRJA to linear peptide (PEPSCAN-ELISA signal) [3]: 87 | Binding of CRJB (10 μg/ml) to looped/cyclic peptide (PEPSCAN-ELISA) [4]: 86 | Binding of CR57 (10 μg/ml) to looped/cyclic peptide (PEPSCAN-ELISA) [5]: 107 | Binding of CRJA (10 μg/ml) to looped/cyclic peptide (PEPSCAN-ELISA) [6]: 98
